Values quoted from earlier work in patent US6753013B1, “Pharmaceutical composition” (Leo Pharmaceutical Products, Ltd. A/S, priority 1999, dated 2004).

System: psoriatic skin
Conditions: simultaneous application of a steroid, such as betamethasone, onto psoriatic skin

## C=C1/C(=C\C=C2/CCC[C@]3(C)[C@@H]([C@H](C)/C=C/[C@@H](O)C4CC4)CC[C@@H]23)C[C@@H](O)C[C@@H]1O [calcipotriol]
  Skin irritative side effects: alleviated
